Assay: xn = mol fraction of the nth substance listed
Details: 100 kPa, Liquid; for speed of sound: Frequency=3 MHz, Sing-around technique in a fixed-path interferometer; for mass density: Vibrating tube method

CC(=O)O [acetic acid] + CCCCn1cc[n+](C)c1.N#C[S-]
x2 = 0
Details | mass density [kg/m3] | speed of sound [m/s]
293.15 K | 1049.75 | 1152.7
298.15 K | 1044.13 | 1135.7
303.15 K | 1038.48 | 1118.4
308.15 K | 1032.83 | 1101.2
313.15 K | 1027.18 | 1084

CCCCn1cc[n+](C)c1.N#C[S-] [1-butyl-3-methylimidazolium thiocyanate] + CC(=O)O
Details | mass density, 293.15 K [kg/m3] | mass density, 298.15 K [kg/m3] | mass density, 303.15 K [kg/m3] | mass density, 308.15 K [kg/m3] | mass density, 313.15 K [kg/m3] | speed of sound, 293.15 K [m/s] | speed of sound, 298.15 K [m/s] | speed of sound, 303.15 K [m/s] | speed of sound, 308.15 K [m/s] | speed of sound, 313.15 K [m/s]
x1 = 0.058 | 1064.97 | 1060.08 | 1055.2 | 1050.32 | 1045.44 | 1270.5 | 1252.4 | 1235.9 | 1218.7 | 1202
x1 = 0.1206 | 1070.89 | 1066.45 | 1062 | 1057.56 | 1053.12 | 1369.6 | 1353.9 | 1338 | 1322.1 | 1306.4
x1 = 0.1878 | 1072.93 | 1069.2 | 1064.96 | 1060.77 | 1056.64 | 1448.3 | 1433.8 | 1419 | 1404.2 | 1389.4
x1 = 0.2632 | 1073.93 | 1070.07 | 1066.21 | 1062.35 | 1058.51 | 1520 | 1506.3 | 1492.2 | 1478.1 | 1464.2
x1 = 0.3498 | 1073.95 | 1070.59 | 1066.92 | 1063.27 | 1059.63 | 1576.8 | 1563.6 | 1550.1 | 1536.6 | 1523.3
x1 = 0.4503 | 1074.04 | 1070.98 | 1067.53 | 1064.1 | 1060.67 | 1626.5 | 1613.6 | 1600.6 | 1587.6 | 1574.8
x1 = 0.5559 | 1073.89 | 1070.99 | 1067.68 | 1064.39 | 1061.21 | 1667 | 1658.3 | 1641.9 | 1629.3 | 1616.9
x1 = 0.6831 | 1073.66 | 1071.08 | 1067.9 | 1064.74 | 1061.59 | 1707.6 | 1695.4 | 1683.1 | 1670.8 | 1658.6
x1 = 0.8282 | 1073.35 | 1070.87 | 1067.81 | 1064.75 | 1061.71 | 1744.3 | 1732.4 | 1720.3 | 1708.4 | 1696.4
x1 = 0.9042 | 1073.19 | 1070.77 | 1067.74 | 1064.74 | 1061.75 | 1760.7 | 1749 | 1737 | 1725.2 | 1713.4
x1 = 1 | 1072.74 | 1070.34 | 1067.37 | 1064.42 | 1061.47 | 1778.8 | 1767.2 | 1755.4 | 1743.7 | 1732.1

CCC(=O)O [propanoic acid] + CCCCn1cc[n+](C)c1.N#C[S-]
x2 = 0
Details | mass density [kg/m3] | speed of sound [m/s]
293.15 K | 993.33 | 1164.7
298.15 K | 987.94 | 1146
303.15 K | 982.54 | 1127.1
308.15 K | 977.14 | 1108.3
313.15 K | 971.75 | 1089.6

CCCCn1cc[n+](C)c1.N#C[S-] [1-butyl-3-methylimidazolium thiocyanate] + CCC(=O)O
Details | mass density, 293.15 K [kg/m3] | mass density, 298.15 K [kg/m3] | mass density, 303.15 K [kg/m3] | mass density, 308.15 K [kg/m3] | mass density, 313.15 K [kg/m3] | speed of sound, 293.15 K [m/s] | speed of sound, 298.15 K [m/s] | speed of sound, 303.15 K [m/s] | speed of sound, 308.15 K [m/s] | speed of sound, 313.15 K [m/s]
x1 = 0.0698 | 1015.42 | 1010.77 | 1006.13 | 1001.49 | 996.86 | 1260.2 | 1243 | 1225.7 | 1208.3 | 1191
x1 = 0.1444 | 1031.52 | 1027.32 | 1023.13 | 1018.95 | 1014.78 | 1361.3 | 1345.7 | 1329.8 | 1313.9 | 1298.1
x1 = 0.2223 | 1042.18 | 1038.27 | 1034.37 | 1030.48 | 1026.6 | 1445.8 | 1431.2 | 1416.3 | 1401.5 | 1386.8
x1 = 0.306 | 1049.78 | 1046.09 | 1042.4 | 1038.73 | 1035.07 | 1514.4 | 1500.5 | 1486.3 | 1472.3 | 1458.3
x1 = 0.3989 | 1055.66 | 1052.15 | 1048.65 | 1045.17 | 1041.69 | 1571.4 | 1558.1 | 1544.6 | 1531.1 | 1517.8
x1 = 0.5022 | 1060.19 | 1057.09 | 1053.43 | 1050.09 | 1046.79 | 1619.3 | 1606.6 | 1593.7 | 1580.8 | 1568.1
x1 = 0.6068 | 1064.02 | 1061.09 | 1057.85 | 1054.64 | 1051.44 | 1662 | 1649.6 | 1637 | 1624.6 | 1612.2
x1 = 0.7166 | 1067.2 | 1064.46 | 1061.32 | 1058.2 | 1055.09 | 1700.9 | 1688.8 | 1676.4 | 1664.2 | 1652.1
x1 = 0.8561 | 1070.36 | 1067.84 | 1064.79 | 1061.76 | 1058.74 | 1742.8 | 1730.9 | 1718.9 | 1707 | 1695.1
x1 = 0.9209 | 1071.7 | 1069.3 | 1066.3 | 1063.3 | 1060.33 | 1761.8 | 1750 | 1738.1 | 1726.3 | 1714.6
x1 = 1 | 1072.74 | 1070.34 | 1067.37 | 1064.42 | 1061.47 | 1778.8 | 1767.2 | 1755.4 | 1743.7 | 1732.1

From the NIST ThermoML archive (doi:10.1016/j.jct.2015.05.004)
